These results are taken from ChEMBL document CHEMBL5380860, “Design, Synthesis, and Antitumor Activity of Potent and Selective EGFR L858R/T790M Inhibitors and Identification of a Combination Therapy to Overcome Acquired Resistance in Models of Non-small-cell Lung Cancer” (J Med Chem, 2023).

Active and inactive are the calls of the source. The rule behind the calls is not given here.

Data set [1] concerns the target Epidermal growth factor receptor (Homo sapiens, UniProt P00533). Briefly: Inhibition of wild type EGFR in human A-431 cells assessed as inhibition of EGF-induced Akt phosphorylation at Ser473 residue at 0.1 to 10 uM pretreated with compound for 4 hrs followed by incubation with EGF for 10 mins by western blot analysis. It counts as toxicity, cell-based. The settings on record: a-431, 4.167 h, dose 0.1-10 µM, time 250 min. A general note: In western blotting, separated proteins are transferred to a membrane and probed.

Data set [2] concerns the target Proto-oncogene tyrosine-protein kinase Src (Homo sapiens, UniProt P12931). Briefly: Inhibition of human wild type partial length Src kinase (L240 to L536 residues) expressed in bacterial expression system by KINOMEscan analysis.
Data set [3] deals with Mus musculus. Briefly: In vivo inhibition of EGFR L858R/T790M mutant in ip dosed NCI-H1975 cells xenografted BALB/c mouse assessed as inhibition of ERK-1/2 phosphorylation in tumor by immunoblot analysis. The class given is functional, organism-based. The following applies: dose 5-20 mg/kg/day.
The subject of a further data set is NCI-H1975. Briefly: Inhibition of clonogenicity in human NCI-H1975 cells assessed as inhibition of colony formation at 0.1 uM incubated for 14 days by crystal violet staining based analysis. It counts as functional, cell-based. The settings on record: time 14.0 day.
Data set [4] has as its system Epidermal growth factor receptor (Homo sapiens), P00533 [L858R,T790M]. Briefly: Inhibition of EGFR L858R/T790M mutant in N-(3-((6-Fluoro-2-((4-(4-methylpiperazin-1-yl)phenyl)amino)quinazolin-4-yl)amino)phenyl)acrylamide-resistant human NCI-H1975 cells assessed as inhibition of EGF-induced AKT phosphorylation at Ser473 residue pretreated with compound and ACK1 inhibitor, Bosutinib for 4 hrs followed by incubation with EGF for 10 mins by western blot analysis. The class given is cell-based. The following applies: time 250.0 min.

Data set [5] deals with STE20-like serine/threonine-protein kinase (Homo sapiens, UniProt Q9H2G2). Briefly: Inhibition of human wild type partial length SLK (S14 to A307 residues) expressed in bacterial expression system assessed as residual activity at 1 uM by KINOMEscan analysis.
STE20-like serine/threonine-protein kinase, sequence (Q9H2G2 whole entry, looked up, the tested form may be a part): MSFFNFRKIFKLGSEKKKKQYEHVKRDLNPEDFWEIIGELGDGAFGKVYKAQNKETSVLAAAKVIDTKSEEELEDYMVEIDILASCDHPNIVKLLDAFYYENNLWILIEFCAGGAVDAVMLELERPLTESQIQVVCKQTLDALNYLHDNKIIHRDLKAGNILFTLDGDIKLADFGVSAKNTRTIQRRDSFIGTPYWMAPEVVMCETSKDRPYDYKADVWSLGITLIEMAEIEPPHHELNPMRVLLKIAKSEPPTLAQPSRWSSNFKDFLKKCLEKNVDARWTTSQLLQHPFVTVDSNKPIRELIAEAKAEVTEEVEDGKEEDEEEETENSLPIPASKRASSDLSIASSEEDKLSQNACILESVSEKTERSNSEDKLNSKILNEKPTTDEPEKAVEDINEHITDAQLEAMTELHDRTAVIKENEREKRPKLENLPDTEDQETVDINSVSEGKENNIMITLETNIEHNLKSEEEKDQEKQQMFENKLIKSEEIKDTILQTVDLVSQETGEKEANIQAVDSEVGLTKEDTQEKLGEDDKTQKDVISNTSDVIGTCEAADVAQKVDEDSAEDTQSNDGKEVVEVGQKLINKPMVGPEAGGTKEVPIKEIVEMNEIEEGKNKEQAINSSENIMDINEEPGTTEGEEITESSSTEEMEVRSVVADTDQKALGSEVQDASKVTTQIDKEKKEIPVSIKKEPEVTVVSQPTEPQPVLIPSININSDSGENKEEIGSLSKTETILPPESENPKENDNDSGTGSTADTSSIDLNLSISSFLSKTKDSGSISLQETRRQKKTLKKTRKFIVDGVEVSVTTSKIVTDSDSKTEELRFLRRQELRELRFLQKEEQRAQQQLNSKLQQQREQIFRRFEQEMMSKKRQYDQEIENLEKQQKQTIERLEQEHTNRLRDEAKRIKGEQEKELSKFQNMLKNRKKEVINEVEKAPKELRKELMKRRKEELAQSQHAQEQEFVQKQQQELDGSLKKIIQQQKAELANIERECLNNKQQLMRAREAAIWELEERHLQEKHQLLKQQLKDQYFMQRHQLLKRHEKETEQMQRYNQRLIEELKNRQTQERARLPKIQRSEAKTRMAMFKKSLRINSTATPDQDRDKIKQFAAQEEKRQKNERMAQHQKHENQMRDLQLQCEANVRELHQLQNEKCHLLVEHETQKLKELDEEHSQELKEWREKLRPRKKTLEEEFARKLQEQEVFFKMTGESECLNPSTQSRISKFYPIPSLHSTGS
Data set [6] has as its system Mus musculus. Briefly: In vivo inhibition of EGFR L858R/T790M mutant in NCI-H1975 cells xenografted BALB/c mouse assessed as inhibition of EGFR phosphorylation at Tyr1068 residue at 5 to 20 mg/kg/day, ip in tumor by immunohistochemistry. The class given is functional, organism-based. The following applies: dose 5-20 mg/kg/day.

Epidermal growth factor receptor (Homo sapiens), P00533 [L858R,T790M], sequence (P00533 whole entry T790M/L858R, looked up): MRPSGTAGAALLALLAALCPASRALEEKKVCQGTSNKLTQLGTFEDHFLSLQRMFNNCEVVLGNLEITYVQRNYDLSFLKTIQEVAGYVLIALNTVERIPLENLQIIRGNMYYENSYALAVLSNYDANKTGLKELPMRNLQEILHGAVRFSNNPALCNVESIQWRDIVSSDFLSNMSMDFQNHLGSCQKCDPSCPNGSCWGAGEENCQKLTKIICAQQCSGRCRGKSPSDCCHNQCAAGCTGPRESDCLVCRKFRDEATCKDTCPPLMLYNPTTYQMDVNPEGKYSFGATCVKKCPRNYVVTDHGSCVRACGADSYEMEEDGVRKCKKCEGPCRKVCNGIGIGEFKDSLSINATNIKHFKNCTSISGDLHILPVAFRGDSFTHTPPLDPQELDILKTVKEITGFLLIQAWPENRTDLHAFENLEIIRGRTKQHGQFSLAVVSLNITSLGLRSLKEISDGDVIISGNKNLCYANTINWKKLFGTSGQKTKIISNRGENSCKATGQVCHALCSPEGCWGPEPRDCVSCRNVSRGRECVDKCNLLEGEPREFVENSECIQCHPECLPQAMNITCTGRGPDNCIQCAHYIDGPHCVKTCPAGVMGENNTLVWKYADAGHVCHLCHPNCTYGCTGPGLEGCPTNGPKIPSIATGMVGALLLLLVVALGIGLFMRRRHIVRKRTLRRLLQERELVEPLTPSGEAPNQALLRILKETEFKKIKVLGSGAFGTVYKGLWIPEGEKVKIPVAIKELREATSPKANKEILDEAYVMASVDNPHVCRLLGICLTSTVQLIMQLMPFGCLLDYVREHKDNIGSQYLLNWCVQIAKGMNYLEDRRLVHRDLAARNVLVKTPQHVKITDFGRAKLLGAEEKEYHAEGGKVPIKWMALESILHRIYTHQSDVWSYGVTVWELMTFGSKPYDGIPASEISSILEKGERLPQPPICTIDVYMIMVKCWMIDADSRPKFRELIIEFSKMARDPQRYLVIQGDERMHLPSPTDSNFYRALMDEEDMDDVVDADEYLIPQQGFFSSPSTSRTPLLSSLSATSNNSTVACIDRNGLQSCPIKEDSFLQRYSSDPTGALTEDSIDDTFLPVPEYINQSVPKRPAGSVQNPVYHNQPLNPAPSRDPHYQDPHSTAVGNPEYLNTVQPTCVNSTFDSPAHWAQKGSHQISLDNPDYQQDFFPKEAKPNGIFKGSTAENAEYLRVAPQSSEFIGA
Epidermal growth factor receptor, sequence (P00533 whole entry): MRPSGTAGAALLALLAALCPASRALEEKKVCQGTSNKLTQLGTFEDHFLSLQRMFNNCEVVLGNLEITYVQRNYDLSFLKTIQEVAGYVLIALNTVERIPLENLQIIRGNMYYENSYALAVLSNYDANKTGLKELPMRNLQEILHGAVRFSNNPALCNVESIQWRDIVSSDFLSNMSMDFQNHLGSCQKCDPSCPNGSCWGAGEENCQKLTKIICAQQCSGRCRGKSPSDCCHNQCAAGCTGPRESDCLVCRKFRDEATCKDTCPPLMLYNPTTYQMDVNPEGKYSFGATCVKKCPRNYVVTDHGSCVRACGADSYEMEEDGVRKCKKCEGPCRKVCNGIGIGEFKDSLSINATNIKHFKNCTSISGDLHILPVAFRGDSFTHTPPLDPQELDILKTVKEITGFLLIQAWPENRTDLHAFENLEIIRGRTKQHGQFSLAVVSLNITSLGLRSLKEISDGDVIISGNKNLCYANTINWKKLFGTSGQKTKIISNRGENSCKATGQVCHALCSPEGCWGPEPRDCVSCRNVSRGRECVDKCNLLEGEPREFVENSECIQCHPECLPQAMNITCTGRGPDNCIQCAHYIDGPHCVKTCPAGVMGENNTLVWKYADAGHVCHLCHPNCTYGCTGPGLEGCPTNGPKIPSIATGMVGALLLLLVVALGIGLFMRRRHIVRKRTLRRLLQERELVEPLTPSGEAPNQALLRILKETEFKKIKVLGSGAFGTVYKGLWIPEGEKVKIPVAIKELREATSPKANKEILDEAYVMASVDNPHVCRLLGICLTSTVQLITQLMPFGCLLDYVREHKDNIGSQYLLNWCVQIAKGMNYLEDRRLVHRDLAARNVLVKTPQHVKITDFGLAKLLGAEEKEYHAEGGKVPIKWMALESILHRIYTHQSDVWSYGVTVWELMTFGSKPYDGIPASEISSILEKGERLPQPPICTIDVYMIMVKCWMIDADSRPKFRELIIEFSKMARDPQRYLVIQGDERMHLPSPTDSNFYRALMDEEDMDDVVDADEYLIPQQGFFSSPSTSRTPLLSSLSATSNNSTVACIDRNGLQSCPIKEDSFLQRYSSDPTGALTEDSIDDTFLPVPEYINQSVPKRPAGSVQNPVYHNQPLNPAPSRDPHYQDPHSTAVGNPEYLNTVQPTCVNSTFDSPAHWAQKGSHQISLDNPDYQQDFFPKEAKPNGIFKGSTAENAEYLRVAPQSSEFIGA
Proto-oncogene tyrosine-protein kinase Src, sequence (P12931 2-536 limits assumed): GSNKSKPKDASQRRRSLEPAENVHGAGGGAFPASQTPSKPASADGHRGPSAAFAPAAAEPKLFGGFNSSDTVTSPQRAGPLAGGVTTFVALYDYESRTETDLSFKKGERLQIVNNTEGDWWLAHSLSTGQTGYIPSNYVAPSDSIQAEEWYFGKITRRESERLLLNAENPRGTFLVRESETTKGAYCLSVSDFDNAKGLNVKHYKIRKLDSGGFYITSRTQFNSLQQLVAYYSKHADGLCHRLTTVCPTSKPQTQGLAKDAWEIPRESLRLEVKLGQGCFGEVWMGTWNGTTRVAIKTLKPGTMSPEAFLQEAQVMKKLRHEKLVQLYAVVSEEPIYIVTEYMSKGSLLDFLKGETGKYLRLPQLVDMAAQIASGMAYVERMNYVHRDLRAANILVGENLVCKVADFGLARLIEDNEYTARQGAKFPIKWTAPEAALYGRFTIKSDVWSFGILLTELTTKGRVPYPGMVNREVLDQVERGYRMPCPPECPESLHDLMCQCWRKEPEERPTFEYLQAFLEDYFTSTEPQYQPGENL

As for `C=CC(=O)Nc1cccc(Nc2nc(Nc3ccc(N4CCN(C)CC4)cc3)nc3ccc(F)cc23)c1`, in data set [1], the “inhibition (INH)” value was “Not Active”. Further, the IC50 (commonly the midpoint of a concentration-inhibition curve) in data set [2] is 603 nM. The inhibition result with Mus musculus [3] was “Dose-Dependent Effect”. In addition, the inhibition result (in the data set on NCI-H1975; in data set [4]; with Mus musculus [6]) was “Active” in each case. In data set [5], the Activity was 29%.
